Series [1] deals with WM1158 melanoma cells. The series can be described thus: Melanoma cell proliferation analysis. In kind it is cell-based, human. The source says: To assess the possible impact of anle138b as well as anle138c on the different melanoma cell lines, WM983-A, WM983-B and SK-MEL-5, we treated them with increasing doses of either compound, dissolved in dimethyl sulfoxide (DMSO), and added to serum-free culture medium. […] We also observed that treatment with anle138b caused a more rapid morphological change than anle138c. To determine whether the effect of the two anle compounds was related to the amount of α-synuclein produced by the cells, we compared the proliferation of the (VGP) WM983-A high-level and the (RGP/VGP) WM1158 low-level α-synuclein-producing melanoma cells over a period of 96 hr, with replenishment of each anle compound at 48 hr (FIGS. 8A and B).
10 or 30 mM stock solutions of anle138b or anle138c were made in DMSO. Since anle138b as well as anle138c bind strongly to FBS, melanoma cells, plated for 24 hr in tissue-culture medium containing 10% FBS, were rinsed three times with serum-free medium prior to addition of anle138b, anle138c, or an equivalent volume of DMSO only in serum-free medium. Forty-eight hours later, the cell culture medium was removed, followed by addition of an equivalent dose of anle138b or anle138c, or DMSO only in serum-free culture medium. […] Proliferation of melanoma cells that had received DMSO only, or were treated with anle138b was determined by counting the cells with a hemocytometer.

Another series relates to SK-MEL-5 melanoma cells. The series can be described thus: Mitochondrial membrane potential (MitoTracker Red CMXRos). The note with it: single 10 μM dose, as early as 24 hr. It is filed as cell-based, human. As to the method:
(§1) Mitochondrial membrane potential. Melanoma cell lines WM983-B, SK-MEL-5 and WM1158 were treated with anle138b or received DMSO only for 24 or 48 hr. Prior to fixation with 3.7% PFA, the cells were incubated with 200 nM MitoTracker Red CMXRos (Thermo Fisher Scientific, Inc.) for 30 min at 37° C. Confocal image stacks were captured with a 63×NA 1.2 Apochromat water immersion lens on a Zeiss LSM 510 Meta confocal microscope in fluorescence and transmission modes.

Series [2] has as its system WM1158 melanoma cells. The description is as above. It is filed as cell-based, human. The note with it: 10 μM, only after 48 hr. The method, then:
as §1

The subject of another series is WM983-B melanoma cells. Described as above. In kind it is cell-based, human. The note with it: single 10 μM dose, as early as 24 hr. As to the method: as §1
The nature of series [3]: Pharmacokinetic (HPLC) analysis of resected xenograft tumors. The settings on record: female, CAnN.Cg-Foxn1nu/Crl nude, mouse, tumor (WM983-B human melanoma xenograft, oral, 2 g of anle138b/kg of food pellets), food pellets with 2 g/kg for seven days, read-out: level in the tumor. It is filed as in vivo, nude mice. The source says:
To determine whether the DPP compound, anle138b, when administered systemically to human MGP melanoma cells grown as subcutaneous tumors in nude mice, would reach the tumors, we performed the following study. A nude mouse, bearing high-level α-synuclein-expressing (MGP) WM983-B human melanoma xenografts on its lower right and on its lower left dorsal side, received, for seven days, food pellets mixed with anle138b. A second nude mouse, also bearing WM983-B tumors on its lower right as well as on its lower left dorsal side, received, for seven days, the same type of food pellets not containing anle138b. After the mice were sacrificed, we performed the following analyses on the post-mortem resected and thereafter, cryopreserved tumors. […]
Cryopreserved WM983-B human melanoma xenograft tissues were brought to 4° C. prior to their transfer into Precellys CKMix—2 mL tissue homogenizing tubes, and homogenization in 0.5 to 1.00 ml acetonitrile using a Precellys Evolution Super homogenizer (Bertin Instruments, Montigny-le-Bretonneux, France). […] The effluent was monitored for UV absorption at 260 nm. Samples were quantitated using peak area ratio of compounds to external standard.

Series [4] relates to WM983-B human melanoma xenografts. The series can be described thus: Melanoma xenograft study: H&E and LC3 staining of tumor sections. It is filed as in vivo, nude mice. The settings on record: food pellets with compound for seven days; vs control tumor. The source says:
To determine whether the DPP compound, anle138b, when administered systemically to human MGP melanoma cells grown as subcutaneous tumors in nude mice, would reach the tumors, we performed the following study. A nude mouse, bearing high-level α-synuclein-expressing (MGP) WM983-B human melanoma xenografts on its lower right and on its lower left dorsal side, received, for seven days, food pellets mixed with anle138b. A second nude mouse, also bearing WM983-B tumors on its lower right as well as on its lower left dorsal side, received, for seven days, the same type of food pellets not containing anle138b. After the mice were sacrificed, we performed the following analyses on the post-mortem resected and thereafter, cryopreserved tumors.
4-week-old, female nude mice (CAnN.Cg-Foxn1nu/Crl) (Charles River Laboratories, Research Models and Services, Germany GmbH, Sulzfeld, Germany) were injected subcutaneously on their lower right as well as lower left dorsal side with WM983-B (MGP) human melanoma cells (1×10^7 cells per side). When the tumors had reached a size of 2.3 to 3.0 mm in any direction, the normal food pellet diet of one of the animals was replaced with food pellets mixed with anle138b [2 g of anle138b/kg of food pellets] […]

Another series concerns WM852 melanoma cells. The experiment in a line: LDH cytotoxicity analysis. The settings on record: 2, 5, 10 or 15 μM for 96 hr, replenishment at 48 hr.

Molecules are shown by their SMILES. Like-named read-outs stand apart in the source and are kept apart here.

Protocol for WM852 melanoma cells: Replicates of WM983-B as well as WM852 melanoma cells were plated at 3×10^5 cells per well in 35 mm tissue culture plates. Twenty-four hours later, the cells were rinsed three times with serum-free medium, followed by addition of increasing doses of anle138b or DMSO only. Forty-eight hours later, the cell culture medium was removed, followed by addition of equivalent doses of anle138b or DMSO only in serum-free medium. Culture medium, collected 48 hr later, was centrifuged to pellet and remove cellular debris. Using a PHERAstar FS microplate reader (BMG LABTECH GmbH, Ortenberg, Germany) and spectrophotometric absorbance measurement, the release of LDH enzyme activity into the tissue culture medium was determined with an LDH cytotoxicity assay kit (Roche Diagnostics Deutschland GmbH, Mannheim, Germany). […] Cells from the DMSO controls were trypsinized, counted, and lysed according to the manufacturer's instructions.

On to `Brc1cccc(-c2cc(-c3ccc4c(c3)OCO4)n[nH]2)c1` [anle138b, 5-(3-Bromophenyl)-3-(3,4-methylenedioxyphenyl)-1H-pyrazole], for which the proliferation entry in the series on WM1158 melanoma cells [1] (over 96 hr, replenishment at 48 hr) was “reduced proliferation only after 48 hr”. Besides, the “recovery of proliferation after removal of compound” value in the series with WM1158 melanoma cells [1] (removal at 96 hr, fresh culture medium containing serum) is “able to recover proliferation normally”. The mitochondrial membrane potential entry is “significantly reduced” in the series on SK-MEL-5 melanoma cells, “some reduction” in the series with WM1158 melanoma cells [2] and “significantly reduced” in the series with WM983-B melanoma cells. Moreover, the concentration at 7 days in series [3] (tumor from left dorsal side (218 mg)) came to 110 µM; in series [3] (tumor from right dorsal side (57 mg)) it was 125 µM. In addition, in series [4], the “LC3-positive cells in tumor sections” value is “more LC3-positive cells”. The “morphology of tumor cells (H&E)” value in series [4] is given as “arranged in a scattered pattern with focally pronounced disturbances in the tissue's architecture”. The “number of cells killed (LDH release) compared with WM983-B” value in the series on WM852 melanoma cells was “significantly lower”.

The values above are taken from patent US11180518B2, “Phenyl-heterocycle-phenyl derivatives for use in the treatment or prevention of melanoma” (MAX-PLANCK-GESELLSCHAFT ZUR FÖRDERUNG DER WISSENSCHAFTEN …, priority 2017, dated 2021).
